Data on nine molecules can be found in patent US12624018B1, “Inhibitors of RIPK2 and medical uses thereof” (Odyssey Therapeutics, Inc., priority 2022, dated 2026).

pIC50: −log10 of the molar value.

One assay relates to human NOD2 signaling. As to the kind of experiment: Inhibition of human NOD2 signaling in HEK-Blue-hNOD2 cells (L18-MDP stimulated, SEAP reporter). Conditions: Homo sapiens, HEK-Blue hNOD2, HEK-Blue-hNOD2 cells, NOD2 ligand stimulation, SEAP reporter; read-out: hNOD2 IC50. Type of assay: cell-based. The essentials:
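HEK-Blue-hNOD2 cells (HEK293 with NOD2 and SEAP reporter), 12500/well, treated with 10-point 3-fold compound dilutions plus L18-MDP 0.5 ng/mL final, 24 h at 37 °C. Supernatant SEAP read with QUANTI-Blue after 3 h at 620 nm; IC50 by 4-parameter fit vs DMSO±L18-MDP controls.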

Assay [1] has as its target T1, RIPK2 and XIAP protein-protein interaction (Homo sapiens, UniProt O43353).
T1 construct: the N-terminus of full-length RIPK2 was appended with the HaloTag fusion protein; expressed in transfected cells; host or cells: HEK293T
As to the kind of experiment: Inhibition of the interaction of RIPK2 with XIAP (NanoBRET in HEK293T cells). It counts as cell-based. Conditions: RIPK2 HaloTag / XIAP NanoLuc, read-out: NanoBRET Scaffolding IC50. A digest of the protocol:
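HEK293T cells transiently co-transfected with HaloTag-RIPK2 (N-terminal) and XIAP-NanoLuc (C-terminal) full-length fusions, grown 24 h at 37° C. in Opti-MEM with 4% FBS. Compounds tested as 10-point 3-fold dilutions; NanoBRET ratio taken as 618 nm acceptor over 460 nm donor emission.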
Background: Bioluminescence resonance energy transfer reports proximity on the nanometre scale.

T1 sequence (O43353 whole entry, the tested form may be a part): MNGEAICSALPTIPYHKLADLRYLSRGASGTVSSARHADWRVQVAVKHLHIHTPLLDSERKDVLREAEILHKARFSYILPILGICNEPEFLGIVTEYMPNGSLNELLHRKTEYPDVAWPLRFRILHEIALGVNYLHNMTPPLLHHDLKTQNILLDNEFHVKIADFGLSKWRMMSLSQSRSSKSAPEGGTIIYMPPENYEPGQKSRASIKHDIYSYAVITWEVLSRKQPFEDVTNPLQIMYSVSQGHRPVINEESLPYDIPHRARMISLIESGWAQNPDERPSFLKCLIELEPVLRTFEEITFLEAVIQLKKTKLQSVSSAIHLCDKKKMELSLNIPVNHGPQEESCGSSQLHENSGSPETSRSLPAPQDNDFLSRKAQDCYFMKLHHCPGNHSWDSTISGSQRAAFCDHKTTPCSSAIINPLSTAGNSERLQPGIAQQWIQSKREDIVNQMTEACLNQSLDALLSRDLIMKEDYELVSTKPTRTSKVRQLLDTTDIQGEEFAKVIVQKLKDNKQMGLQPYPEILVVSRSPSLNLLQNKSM

As to `CC(C)(C)n1cc(NC(=O)Cc2ccc(Oc3ccnc4ccc(S(C)(=O)=O)cc34)cc2F)cn1` [Compound 38, N-(1-(tert-butyl)-1H-pyrazol-4-yl)-2-(2-fluoro-4-((6-(methylsulfonyl)quinolin-4-yl)oxy)phenyl)acetamide], the pIC50 is 8.05 in the assay on human NOD2 signaling and 7.27 in assay [1].

Consider `Cc1cc(CC(=O)Nc2cnn(C(C)(C)C)c2)ccc1Oc1ccnc2ccc(OC3CCNCC3)cc12` [Compound 83, N-(1-(tert-butyl)-1H-pyrazol-4-yl)-2-(3-methyl-4-((6-(piperidin-4-yloxy)quinolin-4-yl)oxy)phenyl) acetamide], for which the pIC50 in the assay on human NOD2 signaling is 8.23; in assay [1] it was 7.54.

On to `Cc1cc(CC(=O)Nc2cnn(C(C)(C)C)c2)ccc1Oc1ccnc2ccc(S(C)(=O)=O)cc12` [Compound 86, N-(1-(tert-butyl)-1H-pyrazol-4-yl)-2-(3-methyl-4-((6-(methylsulfonyl)quinolin-4-yl)oxy)phenyl)acetamide], for which the pIC50 in the assay with human NOD2 signaling is 9.15; in assay [1], 7.92.

For `Cc1c(Oc2ccnc3ccc(S(C)(=O)=O)cc23)ccc(CC(=O)Nc2cnn(C(C)(C)C)c2)c1F` [Compound 91, N-(1-(tert-butyl)-1H-pyrazol-4-yl)-2-(2-fluoro-3-methyl-4-((6-(methylsulfonyl)quinolin-4-yl)oxy)phenyl)acetamide], the pIC50 with human NOD2 signaling was 9.30; in assay [1], 7.92.

With `CCS(=O)(=O)c1ccc2nccc(Oc3ccc(CC(=O)Nc4cnn(C(C)(C)C)c4)cc3C)c2c1` [Compound 99, N-(1-(tert-butyl)-1H-pyrazol-4-yl)-2-(4-((6-(ethylsulfonyl)quinolin-4-yl)oxy)-3-methylphenyl)acetamide], the pIC50 in the assay with human NOD2 signaling is 9.52; in assay [1], 7.82.

For the molecule `Cc1cc(CC(=O)Nc2cnn(C(C)(C)C)c2)c(F)cc1Oc1ccnc2ccc(S(C)(=O)=O)cc12` [Compound 113, N-(1-(tert-butyl)-1H-pyrazol-4-yl)-2-(2-fluoro-5-methyl-4-((6-(methylsulfonyl)quinolin-4-yl)oxy)phenyl)acetamide], the pIC50 was 8.66 with human NOD2 signaling and 7.48 in assay [1].

Consider `Cc1cc(CC(=O)Nc2cnn(C(C)(C)C)c2)c(F)cc1Oc1ccnc2ccc(C(N)=O)cc12` [Compound 359, 4-(4-(2-((1-(tert-butyl)-1H-pyrazol-4-yl)amino)-2-oxoethyl)-5-fluoro-2-methyl-phenoxy) quinoline-6-carboxamide], for which the pIC50 in the assay on human NOD2 signaling is 9.30; in assay [1], 7.85.

Regarding `CNC(=O)c1ccc2nccc(Oc3cc(F)c(CC(=O)Nc4cnn(C(C)(C)C)c4)cc3C)c2c1` [Compound 360, 4-(4-(2-((1-(tert-butyl)-1H-pyrazol-4-yl)amino)-2-oxoethyl)-5-fluoro-2-methylphenoxy)-N-methylquinoline-6-carboxamide], the pIC50 with human NOD2 signaling is 9.70; in assay [1], 8.10.

Regarding `Cc1cc(CC(=O)Nc2cnn(C(C)(C)C)c2)cc(C)c1Oc1ccnc2cc(F)c(C(N)=O)cc12` [Compound 581, 4-(4-(2-((1-(tert-butyl)-1H-pyrazol-4-yl)amino)-2-oxoethyl)-2,6-dimethylphenoxy)-7-fluoroquinoline-6-carboxamide], the pIC50 with human NOD2 signaling is 8.92; in assay [1], 7.21.
